Counter-ions that a name gives are not always drawn. Like-named read-outs stand apart in the source and are kept apart here.
Tests used:
L1210 leukemia cells = details: 100 mg/kg ip
male Sprague-Dawley rats [1] = assay: THA-induced side effects in rats; details: 100 mg/kg ip 20 h prior
rat hepatocytes [2] = assay: EMS-induced cytotoxicity (LDH leakage/cell death) in rat hepatocyte suspensions; details: for Protection From Toxic Injury: EMS 3 h; for inhibition at 25 µM: Rattus norvegicus, Hepatocyte
rat hepatocytes [3] = assay: Intracellular K+ of rat hepatocytes exposed to EMS; type: cell-based
Excerpt: Medzhradsky, Biochem. Med. 13:164 (1975), has noted that the cell's ability to maintain its intracellular concentration of potassium (K^+) is an excellent indicator of the metabolic integrity of the cell. A concentration gradient exists for K^+ with greater concentrations found intracellularly. To maintain this gradient, the cell is dependent on the action of the Na^+ -K^+ ATPase pump and an adequate supply of ATP. As cellular ATP levels decline, the ATPase pump is unable to maintain the gradient resulting in the loss of intracellular K^+ by equilibration with the extracellular space. Because the maintenance of cellular metabolic processes is essential to the continual repair and survival of cells, organ systems, and organisms, the effect of alpha-TS on the metabolic integrity of rat liver cells during a toxic insult was investigated by measuring intracellular K^+ levels. […] At each time-point, rapid separation of viable from non-viable hepatocytes and medium was accomplished by the dibutyl phthalate centrifugation method. Cell viability was monitored hourly by measuring LDH leakage with a Cobas Analyzer and intracellular [K^+ ]with a flame photometer. […] Lipid peroxidation was determined by measuring TBA reactants in the medium. […] Alltech, Avondale, Pa.). […] Following the addition of 0.2 ml 4 M HC1, the neutralized KOH-MeOH extracted with 0.8 ml hexane. […] A standard curve for each tocopherol congener was run with every assay. […] Only viable cells were monitored in the laboratory procedures.

male Sprague-Dawley rats [4] = assay: Energy status of rat tissue; type: in vivo; details: 100 mg/kg ip, 24 h
Protocol: An in vivo experiment was performed to determine the effect of alpha-TS on the energy status of rat tissues. Male Sprague-Dawley rats were administered alpha-TS (100 mg/kg, single ip dose) or olive oil (vehicle only, 0.2 ml, single ip dose). Three rats were used per treatment. The rats fasted for 24 hours after ip dosage prior to sacrifice and analysis of tissues.

central nervous system = assay: CCl4 central nervous system toxicity in rats; type: in vivo, rat; details: pretreatment
[5] = test system: platelet phospholipase A2; details: cited from earlier work
[6] = 50 mM EMS + 25 μM alpha-TS + 100 μM Bis-(p-nitrophenyl) phosphate
[7] = 50 mM EMS + 25 μM alpha-TS + 100 μM Diethyl p-nitrophenyl phosphate
[8] = rat hepatocytes, 25 μM, 50 mM EMS

CC(C)CCC[C@@H](C)[C@H]1CC[C@H]2[C@@H]3CC=C4C[C@@H](OC(=O)CCC(=O)O)CC[C@]4(C)[C@H]3CC[C@]12C [Cholesteryl Succinate tris salt]
Survival Time (L1210 leukemia cells): 6.8 ± 0.4 days
Survival (male Sprague-Dawley rats [1]; THA 30.0 mg/kg (vehicle 100%)): 40%
Salivation (male Sprague-Dawley rats [1]; THA 30.0 mg/kg, 0 to 4 scale (vehicle 2.2 ± 0.4)): 4.0 ± 0.0
Tremors (male Sprague-Dawley rats [1]; THA 30.0 mg/kg, 0 to 4 scale (vehicle 3.0 ± 0.0)): 4.0 ± 0.0

Cc1c(C)c2c(c(C)c1OC(=O)CCC(=O)O)CC[C@@](C)(CCC[C@H](C)CCC[C@H](C)CCCC(C)C)O2 [alpha-TS, d-alpha-tocopheryl succinate]
protection against loss of viability (rat hepatocytes [2]; 0.5 μM, EMS): 85%
protection against loss of viability and metabolic performance (rat hepatocytes [2]; 2 μM, EMS): 100%
Protection From Toxic Injury (rat hepatocytes [2]; 2.0 μM): Yes
Protection From Toxic Injury (rat hepatocytes [2]; 10 μM): Yes
Protection From Toxic Injury (rat hepatocytes [2]; 25 μM): Yes
Protection From Toxic Injury (rat hepatocytes [2]; 250 μM): Yes
Cell Death (rat hepatocytes [2]; 50 mM EMS + 25 μM alpha-TS): 30 ± 7%
Cell Death (rat hepatocytes [2]; [6]): 52 ± 3%
Cell Death (rat hepatocytes [2]; [7]): 58 ± 8%
Cell Death (rat hepatocytes [2]; 50 mM EMS, 5 Hrs, alpha-TS 25, methyl ester 50, cholesteryl succinate 100, monomethyl/dimethyl succinate 250 μM): 27 ± 1%
Protection From Toxic Injury (rat hepatocytes [2]; .5 μM): Yes
% Cell Death (rat hepatocytes [2]; EMS 50 mM, 25 μM alpha-TS (no alpha-TS 68)): 25%
inhibition at 25 µM (rat hepatocytes [2]; 5 h, read-out: Percent Cytoprotection, 25 μM, 50 mM EMS, 5 h): 92 ± 3%
inhibition at 25 µM (rat hepatocytes [2]; read-out: % Protection, 25 μM, 50 mM EMS): 100%
protection from lethal effects of EMS (rat hepatocytes [2]; [8]): protected both rat and canine hepatocytes from the lethal effects
% Initial Intracellular [K+] (rat hepatocytes [3]; 50 mM EMS + 25 μM alpha-TS): 93 ± 11 % Initial
% Initial Intracellular [K+] (rat hepatocytes [3]; [6]): 14 ± 6 % Initial
% Initial Intracellular [K+] (rat hepatocytes [3]; [7]): 26 ± 2 % Initial
% Initial Intracellular [K+] (rat hepatocytes [3]; 50 mM EMS, 5 Hrs, concentrations as cell death (Table 15)): 86 ± 6 % Initial
intracellular K+ during EMS insult (rat hepatocytes [3]; [8]): no loss of intracellular K+
ATP, Blood (male Sprague-Dawley rats [4]): 647 ± 29 nmol/g
ATP, Brain (male Sprague-Dawley rats [4]): 293 ± 86 nmol/g
ATP, Heart (male Sprague-Dawley rats [4]): 2782 ± 868 nmol/g
ATP, Kidney (male Sprague-Dawley rats [4]): 515 ± 44 nmol/g
ATP, Liver (male Sprague-Dawley rats [4]): 458 ± 57 nmol/g
ATP, Lung (male Sprague-Dawley rats [4]): 418 ± 18 nmol/g
Glucose, Blood (male Sprague-Dawley rats [4]): 4.8 ± 0.3 µmol/g
Glucose, Heart (male Sprague-Dawley rats [4]): 10.1 ± 1.7 µmol/g
Glucose, Kidney (male Sprague-Dawley rats [4]): 3.4 ± 1.1 µmol/g
Glucose, Liver (male Sprague-Dawley rats [4]): 21.7 ± 9.7 µmol/g
Glucose, Lung (male Sprague-Dawley rats [4]): 4.1 ± 0.5 µmol/g
Glycogen, Blood (male Sprague-Dawley rats [4]): 117 ± 26 µmol/g
Glycogen, Brain (male Sprague-Dawley rats [4]): 1400 ± 372 nmol/g
Glycogen, Heart (male Sprague-Dawley rats [4]): 4320 ± 946 nmol/g
Glycogen, Kidney (male Sprague-Dawley rats [4]): 211 ± 44 µmol/g
Glycogen, Liver (male Sprague-Dawley rats [4]): 778 ± 98 µmol/g
Glycogen, Lung (male Sprague-Dawley rats [4]): 634 ± 133 µmol/g
Lactate, Blood (male Sprague-Dawley rats [4]): 1.68 ± .06 µmol/g
Lactate, Brain (male Sprague-Dawley rats [4]): 7.82 ± .20 µmol/g
Lactate, Heart (male Sprague-Dawley rats [4]): 10.84 ± 2.67 µmol/g
Lactate, Kidney (male Sprague-Dawley rats [4]): 3.10 ± .21 µmol/g
Lactate, Liver (male Sprague-Dawley rats [4]): 3.36 ± .20 µmol/g
Lactate, Lung (male Sprague-Dawley rats [4]): 2.24 ± .29 µmol/g
recovery from acute CNS toxic manifestations of CCl4 (central nervous system): several days before rats which are not treated with alpha-TS
inhibition of platelet phospholipase A2 activity [5]: inhibits platelet phospholipase A2 activity

Source: US5336485A, “Method for protecting animals against tacrine induced cytotoxic injury using sterol compounds” (priority 1993, dated 1994)
